According to publication PMC8151276, “An Integrated Approach toward NanoBRET Tracers for Analysis of GPCR Ligand Engagement” (Molecules, 2021):

Target: T1, GABBR2 (Homo sapiens, UniProt O75899)
T1 construct: purchased Promega (in-house HiBiT-GPCR construct library, NanoBRET)
T1 sequence (O75899 42-941): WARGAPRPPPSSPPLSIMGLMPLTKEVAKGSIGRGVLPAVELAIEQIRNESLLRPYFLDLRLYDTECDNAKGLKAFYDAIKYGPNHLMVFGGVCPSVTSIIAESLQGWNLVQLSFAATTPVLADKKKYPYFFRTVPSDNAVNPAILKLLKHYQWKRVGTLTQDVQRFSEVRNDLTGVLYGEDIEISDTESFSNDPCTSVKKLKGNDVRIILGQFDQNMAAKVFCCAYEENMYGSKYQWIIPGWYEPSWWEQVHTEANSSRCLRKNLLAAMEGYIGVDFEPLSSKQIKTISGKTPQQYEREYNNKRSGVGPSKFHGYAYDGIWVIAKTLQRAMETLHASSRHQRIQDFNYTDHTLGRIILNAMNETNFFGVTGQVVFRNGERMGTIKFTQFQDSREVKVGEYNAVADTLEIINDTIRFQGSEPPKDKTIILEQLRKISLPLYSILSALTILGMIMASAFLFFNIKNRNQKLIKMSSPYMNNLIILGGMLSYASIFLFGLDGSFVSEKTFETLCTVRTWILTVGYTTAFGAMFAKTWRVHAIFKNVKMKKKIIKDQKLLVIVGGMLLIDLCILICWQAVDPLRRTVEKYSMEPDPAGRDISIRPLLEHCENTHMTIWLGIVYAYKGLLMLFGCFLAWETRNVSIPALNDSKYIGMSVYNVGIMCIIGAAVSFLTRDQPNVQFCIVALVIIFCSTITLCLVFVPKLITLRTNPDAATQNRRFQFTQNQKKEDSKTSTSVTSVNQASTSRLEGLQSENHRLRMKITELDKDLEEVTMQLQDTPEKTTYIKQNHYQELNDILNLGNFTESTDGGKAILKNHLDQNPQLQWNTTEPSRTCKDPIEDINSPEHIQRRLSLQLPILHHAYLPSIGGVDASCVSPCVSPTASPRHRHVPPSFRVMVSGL
Test: NanoBRET screen HiBiT-GABBR2 in HEK293
Type: binding
Experimental: Each tracer candidate was screened across the entire library of HiBiT-GPCR constructs using NanoBRET as the detection modality. As depicted in Figure 4A, the specificity of interactions was evaluated through decrease in BRET due to competitive displacement of a bound tracer by excess parental compound. Each tracer was analyzed for binding to each HiBiT-GPCR fusion in the absence and in the presence of competing parental compound. Briefly, HEK293 cells were transfected with HiBiT-GPCR constructs diluted into promoterless DNA to reduce expression and maximize translocation to the cell surface. Each tracer candidate was then screened at concentrations of 1 μM and 0.1 μM across cells expressing these fusions. Cells were treated for 1.5 h with tracer either alone or in the presence of 20 μM competing parental compound (i.e., control). BRET was measured upon addition of purified LgBiT and subsequent complementation with HiBiT genetically fused to a GPCR. The specificity of interactions was assessed through a decrease in BRET signal due to competitive displacement of the bound tracer. To further gauge the robustness of these interactions, the fold response over the control (i.e., BRETtracer/BRETcontrol) was calculated. We chose a 1.5-fold response, which translates to ≥7-fold signal over noise as the minimal threshold required to score an interaction as positive. […]. Below we highlight the screening results obtained for our exemplary fluorescent tracers based on Clozapine, Amitriptyline and AZD1283.
HiBiT-GPCR DNA constructs were diluted in 10 mM Tris pH 8 to a final concentration of 0.01 μg/μL, arrayed in 96-well plates and stored at −20 °C. For transfection, HEK293 cells were suspended in Opti-MEM (without phenol red) supplemented with 2% fetal bovine serum (Seradigm) and 100 units/mL penicillin–streptomycin (Gibco) at a final concentration of 220,000 cells/mL and dispensed into white 96-well plates at 90 μL/well. Subsequent transfections and screens were carried using an Agilent Bravo Automated Liquid Handling Platform. First, the 96-well HiBiT DNA arrays were diluted 25-fold in Opti-MEM (without serum or phenol red) to a final concentration of 0.0004 μg/μL and 20 μL of the diluted DNAs were transferred into new 96-well plates. Next, promoterless carrier DNA (1 μg/μL) was diluted 25-fold (0.04 μg/μL) and then dispensed into the diluted arrays at 20 μL/well. Following brief mixing, Viafect transfection reagent (Promega) diluted 16-fold into Opti-MEM was dispensed into the plates at 40 μL/well. After mixing by pipetting, plates were incubated for 10 min on the pipetting station deck. The DNA-transfection reagent complexes were then added to plates containing cells. To facilitate the screen, 10 μL of DNA-transfection reagent complexes were added in duplicates to the top 4 and bottom 4 rows, resulting in two identical 48-well arrays per plate. Plates with transfected cells were incubated for 18–20 h at 37 °C/5% CO2. A screen of each tracer across the entire library using two different concentrations requires duplicate plates of transfected cells. Depending on the number of tracers being screened, transfections can be scaled up using the same ratios. The next day, for each tracer, four 20× screening solutions in tracer dilution buffer (Promega) were prepared: two duplicates at final concentration of 20 μM and two duplicates at a final concentration of 2 μM. A competing unmodified compound was added to one of each duplicate at a final concentration of 400 μM. The four resulting solutions were diluted 4-fold in Opti-MEM without serum or phenol red to generate 5× solutions (5 µM and 0.5 µM tracer +/− 100 μM competing compound). To screen the library, a BioTek MultiFlo FX liquid dispenser was used to dispense 22.5 µL of tracer solution to the top 4 rows and 22.5 µL tracer + competing compound solution to the 4 bottom rows. Plates were briefly mixed on an orbital shaker and incubated for 1.5 h at room temperature. […]

SMILES	NanoBRET Fold Response (GABBR2, tracer 0.1μM)	NanoBRET Fold Response (GABBR2, tracer 1μM)	also measured
CCOC(=O)c1cc(C#N)c(N2CCC(C(=O)NS(=O)(=O)Cc3ccccc3/C=C/C(=O)NCCNC(=O)CCc3ccc4n3[B-](F)(F)[N+]3=C(c5ccc[nH]5)C=CC3=C4)CC2)nc1C [AZD1283-1-NB590]	–	–	NanoBRET Fold Response (GABBR2, 0.1μM): 0.89; NanoBRET Fold Response (GABBR2, 1μM): 1.01
N#CN=C(NCCCOc1cccc(CN2CCCCC2)c1)NCCNC(=O)CCOCCOCCOCCOCCNC(=O)CCc1ccc2n1[B-](F)(F)[N+]1=C(c3ccc[nH]3)C=CC1=C2 [Aminopotentidine-2-NB590]	1.03	0.94	–
CN(C)CCC=C1c2ccccc2CCc2ccc(C(=O)NCCNC(=O)CCOCCOCCOCCOCCNC(=O)CCc3ccc4n3[B-](F)(F)[N+]3=C(c5ccc[nH]5)C=CC3=C4)cc21 [Amitriptyline-a-2-NB590]	–	–	NanoBRET Fold Response (tracer at 0.1μM): 1.08; NanoBRET Fold Response (tracer at 1μM): 0.95
CN(C)CCC=C1c2ccccc2CCc2ccc(C(=O)NCCNC(=O)CCOCCOCCOCCOCCNC(=O)CCc3ccc4n3[B-](F)(F)[N+]3=C(c5ccc[nH]5)C=CC3=C4)cc21 [Amitriptyline-b-2-NB590]	–	–	NanoBRET Fold Response (tracer at 0.1μM, listed as amitriptyline-b-2-NB590): 1.13; NanoBRET Fold Response (tracer at 1μM, listed as amitriptyline-b-2-NB590): 1.30
CN(CCC=C1c2ccccc2CCc2ccccc21)C(=O)CCOCCOCCOCCOCCNC(=O)CCc1ccc2n1[B-](F)(F)[N+]1=C(c3ccc[nH]3)C=CC1=C2 [Amitriptyline-e-2-NB590]	–	–	NanoBRET Fold Response (tracer at 1μM): 1.08
COc1ccc2c(n1)c(CCNC(C)=O)cn2CCNC(=O)CCc1ccc2n1[B-](F)(F)[N+]1=C(c3ccc[nH]3)C=CC1=C2 [Azamelatonin-1-NB590]	–	–	NanoBRET Fold Response (0.1μM tracer): 0.96; NanoBRET Fold Response (1μM tracer): 0.96
COc1ccc2[nH]c(-c3ccc(CNC(=O)CCOCCOCCOCCOCCNC(=O)CCc4ccc5n4[B-](F)(F)[N+]4=C(c6ccc[nH]6)C=CC4=C5)cc3)c(CCNC(C)=O)c2n1 [AzomelatoninICO9-2-NB590]	–	–	NanoBRET Fold Response (0.1μM tracer): 0.87; NanoBRET Fold Response (1μM tracer): 1.13
O=C(CCOCCOCCOCCOCCNC(=O)CCc1ccc2n1[B-](F)(F)[N+]1=C(c3ccc[nH]3)C=CC1=C2)NCCCN1CCN(C2=Nc3cc(Cl)ccc3Nc3ccccc32)CC1 [Clozapine-a-2-NB590]	–	–	NanoBRET Fold Response (GABBR2, 0.1μM tracer): 1.07; NanoBRET Fold Response (GABBR2, 1μM tracer): 0.80
CN1CCN(C2=Nc3cc(Cl)ccc3Nc3ccc(CNC(=O)CCOCCOCCOCCOCCNC(=O)CCc4ccc5n4[B-](F)(F)[N+]4=C(c6ccc[nH]6)C=CC4=C5)cc32)CC1 [Clozapine-b-2-NB590]	–	–	NanoBRET Fold Response (GABBR2, 0.1μM tracer): 0.96; NanoBRET Fold Response (GABBR2, 1μM tracer): 1.07
CN1CCN(C2=Nc3cc(Cl)ccc3N(CC(=O)NCCOCCOCCOCCOCCNC(=O)CCc3ccc4n3[B-](F)(F)[N+]3=C(c5ccc[nH]5)C=CC3=C4)c3ccccc32)CC1 [Clozapine-c-2-NB590]	–	–	NanoBRET Fold Response (GABBR2, 0.1μM tracer): 0.99; NanoBRET Fold Response (GABBR2, 1μM tracer): 1.02
O=C(CCOCCOCCOCCOCCNC(=O)CCc1ccc2n1[B-](F)(F)[N+]1=C(c3ccc[nH]3)C=CC1=C2)NCCCN1CCN(C2=Nc3ccccc3Oc3ccc(Cl)cc32)CC1 [Loxapine-a-2-NB590]	1.03	0.85	–
COc1ccccc1N1CCN(CCCCN2C(=O)c3ccc(CNC(=O)CCOCCOCCOCCOCCNC(=O)CCc4ccc5n4[B-](F)(F)[N+]4=C(c6ccc[nH]6)C=CC4=C5)cc3C2=O)CC1 [NAN-190-2-NB590]	0.95	1.04	–
COc1ccccc1N1CCN(CCCCN2C(=O)c3ccc(CNC(=O)CCOCCNC(=O)c4ccc(CNC(=O)CCc5ccc6n5[B-](F)(F)[N+]5=C(c7ccc[nH]7)C=CC5=C6)cc4)cc3C2=O)CC1 [NAN-190-3-NB590]	1.03	1.10	–
O=C(CCc1ccc2n1[B-](F)(F)[N+]1=C(c3ccc[nH]3)C=CC1=C2)NCc1ccc(C(=O)NCCOCCC(=O)N[C@@H]2CC[C@@]3(O)[C@H]4Cc5ccc(O)c6c5[C@@]3(CCN4CC3CC3)[C@H]2O6)cc1 [Naltrexone-3-NB590]	0.80	1.11	–
Cc1cc2c(s1)Nc1ccccc1N=C2N1CCN(CCCNC(=O)CCOCCOCCOCCOCCNC(=O)CCc2ccc3n2[B-](F)(F)[N+]2=C(c4ccc[nH]4)C=CC2=C3)CC1 [Olanzapine-a-2-NB590]	1.01	0.82	–
O=C(CCc1ccc2n1[B-](F)(F)[N+]1=C(c3ccc[nH]3)C=CC1=C2)NCc1ccc(C(=O)NCCOCCOCCNCC(O)COc2cccc3ccccc23)cc1 (centres unmarked) [Propranolol-3-NB590]	–	–	NanoBRET Fold Response (GABBR2, 0.1μM): 0.96; NanoBRET Fold Response (GABBR2, 1μM): 1.13
O=C(CCc1ccc2n1[B-](F)(F)[N+]1=C(c3ccc[nH]3)C=CC1=C2)NCCOCCOCCNC(=O)OCCOCCN1CCN(C2=Nc3ccccc3Sc3ccccc32)CC1 [Quetiapine-a-2-NB590]	1.06	0.91	–
Cc1nc2n(c(=O)c1CCN1CCC(c3noc4cc(F)ccc34)CC1)CCCC2OC(=O)NCCOCCOCCOCCOCCNC(=O)CCc1ccc2n1[B-](F)(F)[N+]1=C(c3ccc[nH]3)C=CC1=C2 (centres unmarked) [Risperidone-2-NB590]	1.07	1.17	–
CC(C)N(CC[C@H](c1ccccc1)c1cc(CCNC(=O)CCOCCOCCOCCOCCNC(=O)CCc2ccc3n2[B-](F)(F)[N+]2=C(c4ccc[nH]4)C=CC2=C3)ccc1O)C(C)C [Tolterodine-2-NB590]	1.15	1.02	–
CC(C)N(CC[C@H](c1ccccc1)c1cc(CCNC(=O)c2ccc(CNC(=O)CCc3ccc4n3[B-](F)(F)[N+]3=C(c5ccc[nH]5)C=CC3=C4)cc2)ccc1O)C(C)C [Tolterodine-BZ-NB590]	0.87	0.71	–
CCCn1c(=O)c2[nH]c(-c3ccc(OCC(=O)NCCNC(=O)CCOCCNC(=O)c4ccc(CNC(=O)CCc5ccc6n5[B-](F)(F)[N+]5=C(c7ccc[nH]7)C=CC5=C6)cc4)cc3)nc2n(CCC)c1=O [XAC-3-NB590]	1.02	1.11	–
